{"source": "patent US20030206876A1", "about": "“Composition” (priority 2000, published 2003)", "test_system": "oral bacteria (production of volatile sulfur compounds from cysteine)", "assay": "cysteine challenge method for halitosis (oral malodor) efficacy, VSC response measured with Halimeter", "type": "in vivo", "experimental": "The ability of low doses of chlorhexidine to combat halitosis (oral malodor) was assessed using the cysteine challenge method. This measures the ability of oral bacteria to produce volatile sulfur compounds (VSC), the major odor component of oral malodor, from cysteine and is correlated with organoleptic evaluation by odor judges. Testing consists of rinsing the mouth with 5 ml of 6 mM cysteine for 30 seconds and measuring the resulting the VSC response (mainly hydrogen sulphide) with a chemical sensor instrument such as the Halimeter. Cysteine challenge testing consisted of the obtaining of an initial baseline VSC determination, the subsequent introduction of the cysteine challenge substrate, measuring the VSC response over a 20 minute period, introducing the test rinse and at set times thereafter, repeating the cysteine challenge for up to 7 hours. Inhibition was assessed quantitatively by the degree of inhibition of VSC production from cysteine by the test agent, chlorhexidine digluconate, as compared to VSC production from cysteine at baseline. Duration of the inhibition was assessed as the time it takes for VSC production with successive cysteine challenges to return to that seen at baseline.", "data": [{"smiles": "[H]/N=C(\\N/C(=N/[H])NCCCCCCNC(=N)NC(=N)Nc1ccc(Cl)cc1)Nc1ccc(Cl)cc1", "note": "[chlorhexidine digluconate]", "values": [{"measurement": "inhibition of production of VSCs at lower concentrations", "setting": "chlorhexidine digluconate 0.020, 0.015, 0.0125 and 0.010% by weight of the composition", "value": "Similarly advantageous results"}, {"measurement": "time after the rinse at which most inhibition of VSC production was seen", "setting": "mouthrinse, chlorhexidine digluconate 0.025% (v/v)", "value": "two"}, {"measurement": "inhibition of production of VSCs from cysteine compared to baseline", "setting": "mouthrinse, chlorhexidine digluconate 0.025% (v/v), cysteine challenge 5 ml of 6 mM cysteine for 30 seconds", "value": "significantly inhibit"}, {"measurement": "duration of the inhibition of VSC production from the initial rinse (gradually decreasing levels)", "setting": "mouthrinse, chlorhexidine digluconate 0.025% (v/v), successive cysteine challenges for up to 7 hours", "value": "over 7 hours"}]}]}
